From patent US20180203025A1, “HDL THERAPY MARKERS” (Cerenis Therapeutics Holding SA, priority 2014, published 2018)

System: SR-BI mRNA in mouse macrophages (J774)
Experiment: SR-BI gene expression (real-time PCR) in J774 macrophages
Assay type: cell-based
Description: J774 were seeded on 6 well plates (300,000 cells/well) and loaded with oxidized-LDL without the use of 3H-cholesterol. […] Gene expression was assayed using the protocols described in Sections 8.3.2 (RNA extraction); 8.3.4 (reverse transcription), and 8.3.5 (qPCR). SR-BI gene expression was determined with Taqman probe Mm00450234.m1 according to the manufacturer's protocol. The reference gene used is HPRT1 (Taqman probe: Mm00446968.m1).
J774 were seeded on 6 well plates (300,000 cells/well) and loaded with oxidized-LDL. […] Gene expression was assayed using the protocols described in Sections 8.3.2 (RNA extraction); 8.3.4 (reverse transcription), and 8.3.5 (qPCR). SR-BI gene (Taqman probe Mm00450234.m1), ABCG1 (Taqman probe Mm00437390.m1), SREBP1 (Taqman probe Mm01138344.m1) and ABCA1 (Taqman probe Mm00442646.m1) expression were determined according to the manufacturer's protocol. […]
J774 were seeded on 6 well plates (600,000 cells/well) in DMEM 10% FCS. […] ABCG1 (Taqman probe Mm00437390.m1), ABCA1 (Taqman probe Mm00442646.m1) and SR-BI (Taqman probe Mm00450234.m1) expression were determined according to the manufacturer's protocol. […]
J774 were seeded on 6 well plates (300,000 cells/well) in DMEM 2.5% FCS. […] ABCA1 (Taqman probe Mm00442646.m1), ABCG1 (Taqman probe Mm00437390.m1), and SR-BI (Taqman probe Mm00450234.m1) expression were determined according to the manufacturer's protocol. […]

Compound | SR-BI mRNA level (Study O, 0.03 to 30 mM, 6 hours) | SR-BI mRNA level (Study J, 24 hours treatment, 250 μg/mL)
OC[C@H]1O[C@@H]2O[C@H]3[C@H](O)[C@@H](O)[C@@H](O[C@H]4[C@H](O)[C@@H](O)[C@@H](O[C@H]5[C@H](O)[C@@H](O)[C@@H](O[C@H]6[C@H](O)[C@@H](O)[C@@H](O[C@H]7[C@H](O)[C@@H](O)[C@@H](O[C@H]8[C@H](O)[C@@H](O)[C@@H](O[C@H]1[C@H](O)[C@H]2O)O[C@@H]8CO)O[C@@H]7CO)O[C@@H]6CO)O[C@@H]5CO)O[C@@H]4CO)O[C@@H]3CO [β-cyclodextrin, reference compound] | dose-dependent increase | 
CER-001: engineered recombinant human apolipoprotein A-I HDL with sphingomyelin and DPPG; protein-to-phospholipid ratio 1:2.7, 97% Sph and 3% DPPG |  | do not change the mRNA level of SR-BI
